Test results from patent publication US20060052326A1, “Werner's syndrome helicase as a target for anti -HIV/AIDS therapy” (priority 2004, published 2006).

Legend:
Format in all cases: cell-based
HIV-1 LTR [1] = test: HIV-1 LTR-luciferase reporter assay in co-transfected HeLa cells; conditions: for effect on basal HIV-1 LTR transcriptional activity (in words): absence of Tat
Experimental: To determine whether the WRN or BLM helicases influence HIV-1 transcriptional activity and viral replication, HeLa cells were co-transfected with an HIV-1 LTR-luciferase reporter plasmid (0.5 μg), RSV-HIV-1 Tat (0.5 μg), and increasing amounts of CMV-WRN or CMV-BLM expression constructs (0.25, 0.5, 1.0 μg). Following transfection, the cells were lysed by repeated freeze-thawing and luciferase assays were performed using equivalent amounts of total cellular proteins.
Next, an assay was performed to determine whether WRN-associated helicase activity is required for WRN-mediated trans-activation from the HIV-1 LTR. HeLa cells were co-transfected as in A with the HIV-1 LTR-luciferase reporter plasmid (0.5 μg), RSV-HIV-1 Tat (0.5 μg), or increasing amounts of CMV-WRN and CMV-WRNK577M (a trans-dominant negative helicase-defective mutant) (0.25, 0.5, 1.0 μg) in the absence of HIV-1 Tat expression. Results shown in FIG. 3B are averages from duplicate assays and error bars representing standard deviations between samples are provided.

[2] = test system: HIV-1IIIB-infected H9 lymphocytes; test: Intracellular p24^Gag immunoblotting in transfected HIV-1IIIB-infected H9 lymphocytes; conditions: PHA (10 ng/ml) and hIL-2 (50 U/ml) stimulated, over-expression
Experimental: The influence of over-expressing wild-type WRN, or trans-dominant-negative WRNK577M, proteins upon HIV-1 replication and the production of intracellular viral structural components was tested in HIV-infected H9 lymphocytes that were stimulated with PHA (10 ng/ml) and human IL-2 (50 U/ml) . HIV-1IIIB-infected H9 lymphocytes were transfected with increasing amounts of CMV-WRN, CMV-WRNK577M, or CMV-green fluorescent protein (GFP) negative control (1.0, 3.0 μg) and then stimulated with PHA (10 ng/ml) and hIL-2 (50 U/ml) to induce HIV-1 replication. The HIV-1 p24^Gag major capsid and cellular actin proteins were detected by immuno-blotting using appropriate primary antibodies. Protein expression was quantified using a densitometer and is represented graphically below immunoblotting results shown in FIG. 7A.

HIV-1 LTR [3] = test: HIV-1 LTR-luciferase reporter assay in Jurkat E6.1 T-cells; conditions: Jurkat E6.1 lymphocytes
Experimental: To determine the influence of the WRN helicase upon HIV-1 LTR transcriptional activation in CD4^+ lymphocytes, Jurkat E6.1 T-cells were co-transfected with HIV-1 LTR-luciferase (0.5 μg), RSV-HIV-1 Tat (0.5 μg), and increasing amounts of CMV-WRN or CMV-WRNK577M, which expresses a trans-dominant negative helicase-defective mutant (0.25, 0.5, 1.0 μg). Following transfection, the cells were lysed by repeated freeze-thawing and luciferase assays were performed, in duplicate, using equivalent amounts of total cellular proteins.

HIV-1 LTR^ΔκB = test: HIV-1 LTR^ΔκB-luciferase mutant reporter assay in co-transfected HeLa cells; conditions: for transcription from the HIV-1 LTR^ΔκB-luciferase construct (in words): absence of Tat
Experimental: To determine whether the TAR-RNA stem-loop secondary structure is sufficient to support WRN-mediated LTR trans-activation, HeLa cells were co-transfected with an HIV-1 LTR^ΔκB luciferase mutant reporter construct, lacking upstream NF-κB-responsive enhancer sequences (transcription from this construct is principally regulated at the level of elongation by TAR-RNA), RSV-HIV-1 Tat, or increasing amounts of CMV-WRN or CMV-WRNK577M (0.25, 0.5, 1.0 μg). Luciferase assays were performed as described using equivalent amounts of total cellular proteins.
The next experiment was undertaken to determine whether interactions with the Tat protein influence WRN's ability to trans-activate the HIV-1 LTR. […] All experiments were performed in duplicate or triplicate and error bars representative of standard deviations are shown in FIG. 4C.

HIV-1 LTR [4] = test: HIV-1 LTR-luciferase / tk-renilla normalized reporter assay in HeLa cells; conditions: for Tat-activated HIV-1 LTR luciferase activity with or without WRNK577M: highest concentration of WRNK577M versus Tat alone
Experimental: (§1) Therefore, we co-transfected immortalized WRN^-I- fibroblasts with a tk-renilla luciferase reporter plasmid (which produces red luminescence as a result of renilla luciferase expression driven by the Herpes Simplex Virus thymidine kinase (tk) minimal gene promoter)(0.5 μg) and an HIV-1 LTR-luciferase reporter construct (which produces green luminescence as a result of firefly luciferase expression driven by the HIV-1 LTR) (0.5 μg), and increasing amounts of RSV-HIV-1 Tat or RSV-HIV-1 TatK28A/K50A (0.15, 0.25, 0.5 μg) in the absence or presence of the trans-dominant negative CMV-WRNK577M mutant (0.5, 1.0 μg). The CMV-WRNK577M trans-dominant-negative helicase-defective mutant was co-expressed in certain experiments to inhibit Tat-activated HIV-1 LTR transcription and endogenous WRN functions in HeLa cells (Bai Y et al., Hum. Genet. 113:337-347). Samples were normalized to yield approximately equivalent renilla-luciferase expression to control for transfection efficiencies and any differences in overall transcription levels between WRN^-I- fibroblasts and HeLa cells. Normalized extracts were then compared to determine basal-level and Tat-activated HIV-1 LTR-luciferase transcription.

H9HIV-1IIIB lymphocytes = test: Immunofluorescence-microscopy of p24^Gag in transfected HIV-1-infected H9 lymphocytes; conditions: PHA/hIL-2 stimulated, Myc-epitope-tagged protein over-expression
Experimental: Immunofluorescence-microscopy was next performed to directly assess whether over-expression of Myc-epitope-tagged WRN or the trans-dominant-negative WRNK577M mutant influence HIV-replication and production of p24^Gag in infected H9HIV-1IIIB lymphocytes. HIV-1-infected H9 lymphocytes were transfected with increasing amounts of CMV-WRN, CMV-WRNK577M, or CβF empty vector (0.12, 0.25 μg) and were stimulated with PHA and hIL-2 as described above. Immunofluorescence-microscopy was performed to determine the influence of WRN or WRNK577M over-expression upon production of HIV-1 p24^Gag and viral replication. Expression of Myc-epitope-tagged WRN and WRNK577M proteins in transfected H9 cells was detected using a rabbit anti-Myc polyclonal antibody (Moser M J et al., Nucleic Acids Res. 28:648-654). Production of intracellular HIV-1 p24^Gag capsid protein was detected using a monoclonal anti-HIV-1 p24^Gag antibody. DAPI-staining was performed to visualize nuclei.

HIV-1 LTR^ΔNFκB/ΔTAR = test: HIV-1 LTR^ΔNFκB/ΔTAR-luciferase double-mutant reporter assay in HeLa cells
Excerpt: HeLa cells were co-transfected as in A with a double-mutant, HIV-1 LTR^ΔNFκB/ΔTAR-luciferase reporter plasmid, deleted for κB-responsive elements and TAR-RNA sequences, RSV-HIV-1 Tat, CMV-WRN, or CMV-BLM.

HIV-1 LTR [5] = test: HIV-1 LTR-luciferase / tk-renilla normalized reporter assay in immortalized WRN^-I- fibroblasts; conditions: highest concentration of RSV-HIV-1 Tat
Experimental: In order to determine whether the WRN helicase is an essential cofactor for HIV-1 transcription and virus replication, basal and Tat-activated LTR-driven transcription were measured in WRN^-I-fibroblasts. These fibroblasts were obtained from Werner's syndrome patients and lack a functional WRN helicase protein (Moser M J et al., Nucleic Acids Res. 28:648-654).
as §1, with “Samples were normalized to yield approximately equivalent renilla-luciferase expression to control for transfection efficiencies and any differences in overall transcription levels between WRN^-I- fibroblasts and HeLa cells. Normalized extracts were then compared to determine basal-level and Tat-activated HIV-1 LTR-luciferase transcription.” left out

[6] = co-expression with Tat, increasing amounts
[7] = highest concentration of RSV-HIV-1 Tat

| Molecule | effect on basal HIV-1 LTR transcriptional activity (in words) (HIV-1 LTR [1]) | intracellular production of p24^Gag capsid protein / HIV-1 replication (immunoblot) [2] | transcription from the HIV-1 LTR^ΔκB-luciferase construct (in words) (HIV-1 LTR^ΔκB) | Tat-activated HIV-1 LTR luciferase activity with or without WRNK577M (HIV-1 LTR [4]) | intracellular p24^Gag (immunofluorescence) (H9HIV-1IIIB lymphocytes) | transcriptional activation of reporter deleted for κB-responsive elements and TAR-RNA (HIV-1 LTR^ΔNFκB/ΔTAR) | further results |
| --- | --- | --- | --- | --- | --- | --- | --- |
| WRNK577M | represses basal transcription to levels below base-line | represses production of the p24^Gag major capsid protein | did not significantly promote transcription | 5,457,345 RLUs | markedly reduced levels of p24^Gag | – | effect on Tat's transcriptional activation from the HIV-1 LTR (in words) (HIV-1 LTR [3]; [6]): repressed nearly one-half of Tat's transcriptional activation |
| Tat: HIV-1 viral trans-activator protein, 81-101 amino acid residues, expressed from RSV construct | – | – | – | 14,518,374 RLUs | – | completely abrogated transcriptional activation | transcriptional activation from the HIV-1 LTR (HIV-1 LTR [3]; Tat alone): approximately 250 fold; Tat trans-activation of HIV-1 LTR (HIV-1 LTR [5]): 0 fold; Tat-activated HIV-1 LTR luciferase activity (HIV-1 LTR [5]): 340 RLUs; Tat-mediated trans-activation from the HIV-1 LTR^ΔκB-luciferase reporter (HIV-1 LTR^ΔκB): 6.5 fold; Tat trans-activation of HIV-1 LTR (HIV-1 LTR [4]; [7]): 22 fold; Tat-activated HIV-1 LTR luciferase activity (HIV-1 LTR [4]; [7]): 14,834,412 RLUs |
| WRN helicase: wild-type Werner's syndrome helicase protein, 1432 amino acid residues, expressed from CMV construct | transcriptionally activates the HIV-1 LTR in a dose-dependent manner | significantly higher intracellular production of the p24^Gag major viral capsid protein | to a level approximately one-half that observed for Tat | – | increased intracellular p24^Gag | completely abrogated transcriptional activation | Tat-mediated LTR trans-activation on co-expression of helicase (HIV-1 LTR [1]; co-expression with Tat, increasing amounts of construct): ~60 fold; transcriptional activation from the HIV-1 LTR (HIV-1 LTR [1]; wild-type LTR, factor expressed alone): approx. 10 fold; trans-activation by Tat on co-expression of helicase (HIV-1 LTR [3]; [6]): approximately 395 fold |
| BLM helicase: BLM DNA-helicase expressed from CMV-BLM construct | does not affect basal HIV-1 LTR transcriptional activity | – | no significant influence | – | – | – | effect on Tat-mediated transcriptional activation (in words) (HIV-1 LTR [1]; co-expression with Tat): does not significantly influence Tat-mediated transcriptional activation |
| TatK28A/K50A (protein) MEPVDPRLEPWKHPGSQPKTACTNCYCAKCCFHCQVCFITKALGISYGRAKRRQRRRAHQNSQTHQASLSKQPTSQPRGDPTGPKE | – | – | – | – | – | – | effect on WRN-mediated trans-activation from the HIV-1 TAR-RNA (HIV-1 LTR^ΔκB; co-expression with CMV-WRN): inhibited WRN-mediated trans-activation |
